Reference: ChEMBL document CHEMBL5370585, “Exploration and Biological Evaluation of 1,3-Diamino-7H-pyrrol[3,2-f]quinazoline Derivatives as Dihydrofolate Reductase Inhibitors” (J Med Chem, 2023)
Converted amounts (≈) assume the structure as drawn.

Key:
[1] = tested on: EMT6; assay: Antitumor activity against mouse EMT6 cells xenografted in BALB/c mouse model assessed as tumor growth inhibition at 5 mg/kg,ip administered every 3 days for 14 consecutive days relative to control; format: functional; parameters: scale not given: the % may be the effect or the level left; conditions: time 14 day
[2] = Toxicity in BALB/c mouse xenografted with mouse EMT6 cells at 2.5 mg/kg, ip administered every 3 days for 14 consecutive days; format: organism-based; conditions: in vivo, 336 h, time 14 day
[3] = Metabolic stability in mouse liver microsomes assessed as intrinsic clearance at 1 uM measured upto 60 mins in presence of NADPH by LC-MS/MS analysis; format: ADME, Microsome; conditions: read-out: CLH
[4] = Toxicity in BALB/c mouse xenografted with mouse EMT6 cells assessed as effect on body weight at 2.5 mg/kg, ip measured on day 1 (reference value: 18.5 +/-0.5g); format: organism-based; conditions: in vivo, 24 h, time 1 day
[5] = Stability in mouse plasma assessed as parent compound remaining at 1 ug/ml measured after 30 mins by LC-MS/MS analysis; format: ADME, cell-free; conditions: at 1 µg/mL, read-out: Stability
[6] = Metabolic stability in mouse liver microsomes assessed as hepatic clearance at 1 uM measured upto 60 mins in presence of NADPH by LC-MS/MS analysis; format: ADME, Microsome; conditions: 1 h
[7] = AUC (0 to t) in ICR mouse at 10 mg/kg, ip measured after 5 to 24 hrs post administration by LC-MS/MS analysis; format: ADME, organism-based; parameters: time 5-24 hrs, dose 10 mg/kg, route ip; conditions: ICR, in vivo
[8] = Stability in mouse plasma assessed as parent compound remaining at 1 ug/ml measured after 10 mins by LC-MS/MS analysis; format: ADME, cell-free; conditions: at 1 µg/mL, read-out: Stability
[9] = tested on: Staphylococcus aureus; assay: Antibacterial activity against Staphylococcus aureus ATCC 29213 incubated for 16 to 18 hrs by CLSI based broth dilution method; format: functional; conditions: time 16-18 hrs
[10] = Stability in mouse plasma assessed as parent compound remaining at 1 ug/ml measured after 20 mins by LC-MS/MS analysis; format: ADME, cell-free; conditions: at 1 µg/mL, read-out: Stability
[11] = Stability in mouse plasma assessed as parent compound remaining at 1 ug/ml measured after 120 mins by LC-MS/MS analysis; format: ADME, cell-free; conditions: at 1 µg/mL, read-out: Stability
[12] = Toxicity in BALB/c mouse xenografted with mouse EMT6 cells assessed as effect on body weight at 2.5 mg/kg, ip measured on day 14 (reference value: 21.6 +/-0.6g); format: organism-based; conditions: in vivo, 336 h, time 14 day
[13] = tested on: MCF7; assay: Cytotoxicity against human MCF7 cells measured after 72 hrs by MTT assay; format: functional, cell-based; conditions: MCF7, 72 h
[14] = Stability in mouse plasma assessed as parent compound remaining at 1 ug/ml measured after 240 mins by LC-MS/MS analysis; format: ADME, cell-free; conditions: at 1 µg/mL, read-out: Stability
[15] = Stability in mouse plasma assessed as parent compound remaining at 5 ug/ml measured after 120 mins by LC-MS/MS analysis; format: ADME, cell-free; conditions: at 5 µg/mL, read-out: Stability
[16] = tested on: EMT6; assay: Antitumor activity against mouse EMT6 cells xenografted in BALB/c mouse model assessed as tumor growth inhibition at 2.5 mg/kg,ip administered every 3 days for 14 consecutive days relative to control; format: functional; parameters: scale not given: the % may be the effect or the level left; conditions: time 14 day
[17] = tested on: Enterococcus faecalis; assay: Antibacterial activity against Enterococcus faecalis ATCC 29212 incubated for 16 to 18 hrs by CLSI based broth dilution method; format: functional; conditions: time 16-18 hrs
[18] = Stability in mouse plasma assessed as parent compound remaining at 5 ug/ml measured after 10 mins by LC-MS/MS analysis; format: ADME, cell-free; conditions: at 5 µg/mL, read-out: Stability
[19] = tested on: EMT6; assay: Antitumor activity against mouse EMT6 cells xenografted in BALB/c mouse model assessed as tumor weight at 2.5 mg/kg,ip administered every 3 days for 14 consecutive days (reference value: 1.53 +/-0.26g); format: functional; conditions: time 14 day
[20] = target: T1, Dihydrofolate reductase (Homo sapiens) (UniProt P00374); assay: Inhibition of human DHFR at 1 uM incubated for 10 mins in presence of NADPH by colorimetry based analysis relative to control
T1 sequence (whole entry): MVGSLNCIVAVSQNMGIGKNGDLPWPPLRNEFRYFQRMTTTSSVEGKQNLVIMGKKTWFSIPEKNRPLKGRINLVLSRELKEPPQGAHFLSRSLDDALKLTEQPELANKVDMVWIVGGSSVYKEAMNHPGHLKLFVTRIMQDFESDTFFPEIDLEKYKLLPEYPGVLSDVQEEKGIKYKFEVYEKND

[21] = tested on: EMT6; assay: Antitumor activity against mouse EMT6 cells xenografted in ip dosed BALB/c mouse model assessed as delay in tumor progression administered every 3 days for 14 consecutive days; format: functional, organism-based; conditions: time 14.0 day
[22] = Stability in mouse plasma assessed as parent compound remaining at 1 ug/ml measured after 45 mins by LC-MS/MS analysis; format: ADME, cell-free; conditions: at 1 µg/mL, read-out: Stability
[23] = Metabolic stability in mouse liver microsomes assessed as half life at 1 uM measured upto 60 mins in presence of NADPH by LC-MS/MS analysis; format: ADME, Microsome
[24] = Toxicity in BALB/c mouse xenografted with mouse EMT6 cells assessed as effect on body weight at 5 mg/kg, ip measured on day 14 (reference value: 21.6 +/-0.6g); format: organism-based; conditions: in vivo, 336 h, time 14 day
[25] = tested on: Acinetobacter baumannii; assay: Antibacterial activity against Acinetobacter baumannii ATCC 19606 incubated for 16 to 18 hrs by CLSI based broth dilution method; format: functional; conditions: time 16-18 hrs
[26] = Stability in mouse plasma assessed as parent compound remaining at 5 ug/ml measured after 20 mins by LC-MS/MS analysis; format: ADME, cell-free; conditions: at 5 µg/mL, read-out: Stability
[27] = Stability in mouse plasma assessed as parent compound remaining at 5 ug/ml measured after 60 mins by LC-MS/MS analysis; format: ADME, cell-free; conditions: at 5 µg/mL, read-out: Stability
[28] = tested on: EMT6; assay: Antitumor activity against mouse EMT6 cells xenografted in BALB/c mouse model assessed as tumor weight at 5 mg/kg,ip administered every 3 days for 14 consecutive days (reference value: 1.53 +/-0.26g); format: functional; conditions: time 14 day
[29] = Stability in mouse plasma assessed as parent compound remaining at 1 ug/ml measured after 1440 mins by LC-MS/MS analysis; format: ADME, cell-free; conditions: at 1 µg/mL, read-out: Stability
[30] = tested on: HGC-27; assay: Cytotoxicity against human HGC-27 cells measured after 72 hrs by MTT assay; format: functional, cell-based; conditions: HGC-27, 72 h
[31] = tested on: Staphylococcus epidermidis; assay: Antibacterial activity against Staphylococcus epidermidis ATCC 12228 incubated for 16 to 18 hrs by CLSI based broth dilution method; format: functional; conditions: time 16-18 hrs
[32] = tested on: HCT-116; assay: Cytotoxicity against human HCT-116 cells measured after 72 hrs by MTT assay; format: functional, cell-based; conditions: HCT-116, 72 h
[33] = Stability in mouse plasma assessed as parent compound remaining at 5 ug/ml measured after 1440 mins by LC-MS/MS analysis; format: ADME, cell-free; conditions: at 5 µg/mL, read-out: Stability
[34] = tested on: HepG2; assay: Cytotoxicity against human HepG2 cells measured after 72 hrs by MTT assay; format: functional, cell-based; conditions: HepG2, 72 h
[35] = AUC (0 to infinity) in ICR mouse at 10 mg/kg, ip measured after 5 to 24 hrs post administration by LC-MS/MS analysis; format: ADME, organism-based; parameters: time upper 24 hrs, dose 10 mg/kg, time lower 5 hrs, route ip; conditions: ICR, in vivo
[36] = tested on: Escherichia coli; assay: Antibacterial activity against Escherichia coli ATCC 25922 incubated for 16 to 18 hrs by CLSI based broth dilution method; format: functional; conditions: time 16-18 hrs
[37] = Toxicity in BALB/c mouse xenografted with mouse EMT6 cells assessed as effect on body weight at 5 mg/kg, ip measured on day 1 (reference value: 18.5 +/-0.5g); format: organism-based; conditions: in vivo, 24 h, time 1 day
[38] = Tmax in ICR mouse at 10 mg/kg, ip measured after 5 to 24 hrs post administration by LC-MS/MS analysis; format: ADME, organism-based; conditions: in vivo, time 5-24 hrs
[39] = Stability in mouse plasma assessed as parent compound remaining at 5 ug/ml measured after 240 mins by LC-MS/MS analysis; format: ADME, cell-free; conditions: at 5 µg/mL, read-out: Stability
[40] = Stability in mouse plasma assessed as parent compound remaining at 1 ug/ml measured after 60 mins by LC-MS/MS analysis; format: ADME, cell-free; conditions: at 1 µg/mL, read-out: Stability
[41] = tested on: Staphylococcus aureus; assay: Antibacterial activity against methicillin-resistant Staphylococcus aureus ATCC 43300 incubated for 16 to 18 hrs by CLSI based broth dilution method; format: functional; conditions: time 16-18 hrs
[42] = Half life in ICR mouse at 10 mg/kg, ip measured after 5 to 24 hrs post administration by LC-MS/MS analysis; format: ADME, organism-based; conditions: in vivo, time 5-24 hrs
[43] = Stability in mouse plasma assessed as parent compound remaining at 5 ug/ml measured after 45 mins by LC-MS/MS analysis; format: ADME, cell-free; conditions: at 5 µg/mL, read-out: Stability
[44] = Stability in mouse plasma assessed as parent compound remaining at 5 ug/ml measured after 30 mins by LC-MS/MS analysis; format: ADME, cell-free; conditions: at 5 µg/mL, read-out: Stability

Cc1cc2c3c(N)nc(N)nc3ccc2n1Cc1nc2ccccc2s1
Activity [1]: 37.7% | Activity [2]: Non-Toxic | microsomal CLint at 1 µM [3]: 16.9 µL/min/mg | Activity [4]: 18.4 g | remaining at 0.5 h, 1 ug/ml [5]: 99.1% | CLH [6]: 38.3 mL/min/kg | AUC(0-t) [7]: 2280 ng·h/mL | remaining at 10 min, 1 ug/ml [8]: 99.6% | MIC [9]: 0.5 µg/mL (≈ 1.39 µM) | remaining at 20 min, 1 ug/ml [10]: 99.3% | remaining at 2 h, 1 ug/ml [11]: 98.4% | Activity [12]: 14.9 g | IC50 [13]: 430 nM | remaining at 4 h, 1 ug/ml [14]: 98.5% | remaining at 2 h, 5 ug/ml [15]: 97.3% | Activity [16]: 71% | MIC [17]: 0.5 µg/mL (≈ 1.39 µM) | remaining at 10 min, 5 ug/ml [18]: 99% | Activity [19]: 0.44 g | inhibition [20]: 99.1% | Activity [21]: Dose-Dependent Effect | remaining at 0.75 h, 1 ug/ml [22]: 98.9% | half-life at 1 µM [23]: 1.37 h | Activity [24]: 17.6 g | MIC [25]: 4 µg/mL (≈ 11.1 µM) | remaining at 20 min, 5 ug/ml [26]: 98.6% | remaining at 1 h, 5 ug/ml [27]: 97.8% | Activity [28]: 0.95 g | remaining at 24 h, 1 ug/ml [29]: 97.3% | IC50 [30]: 540 nM | MIC [31]: ≤ 0.004 µg/mL | IC50 [32]: 1950 nM | remaining at 24 h, 5 ug/ml [33]: 97% | IC50 [34]: 180 nM | AUC(0-inf) [35]: 2740 ng·h/mL | MIC [36]: 1 µg/mL (≈ 2.77 µM) | Activity [37]: 18.3 g | Tmax [38]: 0.83 h | remaining at 4 h, 5 ug/ml [39]: 97.5% | remaining at 1 h, 1 ug/ml [40]: 98.5% | MIC [41]: 0.25 µg/mL (≈ 0.694 µM) | half-life [42]: 9.81 h | remaining at 0.75 h, 5 ug/ml [43]: 97.9% | remaining at 0.5 h, 5 ug/ml [44]: 98.3%
